Assay [1] concerns L929 cells induced by TGF-β1. In words: Inhibition of L929 cell proliferation induced by TGF-β1 (MTT). The assay is classed as cell-based. To be noted: Mus musculus, L929, 72 h, 2 μg/L TGF-β1, 72 h, MTT method. The protocol:
L929 cells with a cell population of 5×10^7/L adjusted by DMEM culture solution containing 10% fetal bovine serum were seeded into 96 well plate, cultured for 24 h. Supplementing the same culture medium containing 2 μg/L TGF-β1 and (S)/(R)-salvianolic acid T of different concentrations. There were 6 multiple pores in each group, final concentration of (S)/(R)-salvianolic acid T was set as 0, 1, 3, 10, 20, 40, 80, 150 μmol/L. Removing medium after being cultured for 72 h, assaying the cell activity by MTT method.

Assay [2] relates to rats with myocardial infarction induced by coronary artery ligation. In words: Myocardial infarction rate (TTC staining) after coronary artery ligation. The class given is in vivo, SD rats. Particulars: for myocardial infarction rate: compared with the model group, P<0.05. The protocol: Clean male SD rats were taken and placed in groups randomly according to the body-weight, including pseudo operation group (distilled water), model group (distilled water), aspirin group, (S)-salvianolic acid T low-dose group, (S)-salvianolic acid T high-dose group, and there were 10 rats in each group. Each group of rats were administrated by gastric administration once a day, continuously for 10 days. […] Recording standard II lead ECG at 5 minutes before surgery, 0 s, 1 min, 5 min, 15 min, 1 h, 4 h after the ligation, to investigate the changes of J point of ECG. Taking out the heart immediately after the end of the experiment, washing away the blood with normal saline, cutting off the atrium and the bottom of the blood vessels, weighing the mass of the ventricle, cutting the ventricle into 5 pieces on average along the atrioventricular groove and putting them into 1% (w/v) TTC solution, dyeing in the water bath at a constant temperature of 37 °C for 5 min, taking digital photos firstly after taking them out, then separating the unstained parts (that is, the infarct parts) and weighing to calculate the percentage of them in the mass of total ventricular (myocardial infarction percentage), and performing t test with ischemia model group. The formula for calculating the infarct percentage is as follows: Infarct percentage (%)=(the mass of pale areas/the mass of the ventricle)×100%

The test system is the same in assay [3]. In words: J point of ECG in rats with myocardial infarction induced by coronary artery ligation. The class given is in vivo, SD rats. How it is done: […] Aspirin: 30 mg/kg body-weight. Clean male SD rats were taken and placed in groups randomly according to the body-weight, including pseudo operation group (distilled water), model group (distilled water), aspirin group, (S)-salvianolic acid T low-dose group, (S)-salvianolic acid T high-dose group, and there were 10 rats in each group. Each group of rats were administrated by gastric administration once a day, continuously for 10 days. […] Recording standard II lead ECG at 5 minutes before surgery, 0 s, 1 min, 5 min, 15 min, 1 h, 4 h after the ligation, to investigate the changes of J point of ECG.

Assay [4] in a line: DPPH free-radical scavenging reaction. The protocol: Absorbance of the reaction solution was measured at 517 nm. In this study, vitamin C was regarded as a positive control. Free-radical scavenging rate was calculated in accordance with the following equation: Free-radical scavenging rate (%)=[1−Asample/Acontrol)/Acontrol]×100% Wherein, the Asample means the absorbance of the tested samples, and Acontrol means the absorbance of blank control.
(In general: DPPH is a stable violet radical that fades when it is reduced.)

Assay [5] has as its system rats with myocardial infarction induced by coronary artery ligation. In words: Blood biochemical index of rats with myocardial infarction induced by coronary artery ligation. The assay is classed as in vivo, SD rats. Particulars: for CK / CK-MB / LD / MDA / SOD: serum.
A short description of assay [6]: Determination of reducing capacity (potassium ferricyanide / ferric chloride, absorbance at 700 nm). How it is done: 0.5 ml of 200 mM phosphate buffer (pH6.8) containing different concentrations of the (S)/(R)-salvianolic acid T and 0.5 ml of 1.0% (w/v) potassium ferricyanide solution were sucked respectively and cooled on an ice bath after being heated on a water bath (50[…]) for 20 min. 0.5 ml of 10% trichloroacetic acid solution was added and centrifuged at […] for 10 min. 1.0 ml of the resulting supernatant was taken, into which 1.0 ml of distilled water and 0.2 ml of 0.1% (w/v) ferric chloride solution were added, stood still for 10 min and the absorbance was measured at 700 nm. Meanwhile, the blank experiment was carried out. Vitamin C is a strongly reducing substance, acting as positive control in this study. Reducing capacity of the sample is represented by subtracting the absorbance of the blank control from the absorbance of the tested sample. Thus, it means the higher absorbance, the stronger reducing capacity.

The test system of assay [7] is mice pulmonary fibrosis induced by bleomycin. In words: Anti-pulmonary fibrosis experiment in mice induced by bleomycin. The class given is in vivo, Kunming mice. Particulars: 3 weeks. How it is done: Dividing the 40 mice into 4 groups: □ normal control group, given nasal dripping of normal saline, drenched with normal saline; □ model control group:given nasal dripping of bleomycin, drenched with normal saline; □(S)-salvianolic acid T group (16 mg/kg): given nasal dripping of bleomycin, drenched with (S)-salvianolic acid T solution; □(R)-salvianolic acid T group (16 mg/kg): given nasal dripping of bleomycin, drenched with (R)-salvianolic acid T solution; 10 mice in each group.
On the first day of the experiment, the mice were anesthetized with chloral hydrate, each mouse was given disposable nasal dripping of 50 μg bleomycin to establish the pulmonary fibrosis model. On the second day of the experiment, two treatment groups were drenched with (S)/(R)-salvianolic acid T, the model group and the normal group were drenched with equal volume of normal saline, once each day, 3 consecutive weeks. On the 21th day of the experiment, serum was separated from the blood collected from the orbital vein to detect TGF-β1, the mice were killed to take lungs, ground with double distilled water (the ratio of lungs and double distilled water was 1:5 (w/v)) into tissue homogenate, centrifuged to detect the MDA, superoxide dismutase (SOD), catalase (CAT), peroxidase (POD) in the tissues.

[8] abbreviates: compared with positive control vitamin C.
[9] abbreviates: sample 0.625 μg/ml, 100 μM DPPH, 20 min, 25° C.
Where [10] appears, read: high-dose group, dosage 10 mg/kg.
Where [11] appears, read: 16 mg/kg, lung tissue homogenate.

The structures appear in SMILES notation.

As to `O=C(/C=C/c1ccc(O)c(O)c1/C(=C\c1ccc(O)c(O)c1)C(=O)O)O[C@@H](Cc1ccc(O)c(O)c1)C(=O)O` [(S)-salvianolic acid T], the IC50 (commonly the concentration needed to halve the response being measured) in assay [1] was determined as 26.1 µM. Besides, the “effect on preventing acute myocardial infarction induced by coronary artery ligation” value in assay [2] (high-dose group compared with aspirin group, FIG. 11 heart biopsy) is given as “equal effect”. Also, the myocardial infarction rate result in assay [2] (high-dose group) was “significantly reduce the myocardial infarction rate”. The J point in assay [3] (high-dose group, dosage 10 mg/kg, gastric once a day for 10 days, before operation) is listed as −0.014 ± 0.005 mv; in assay [3] (high-dose group, dosage 10 mg/kg, 1 min after operation), 0.169 ± 0.033 mv; in assay [3] (high-dose group, dosage 10 mg/kg, 5 min after operation), 0.146 ± 0.031 mv; in assay [3] (high-dose group, dosage 10 mg/kg, 15 min after operation), 0.160 ± 0.027 mv; in assay [3] (high-dose group, dosage 10 mg/kg, 1 h after operation), 0.170 ± 0.014 mv; in assay [3] (high-dose group, dosage 10 mg/kg, 4 h after operation) it was 0.153 ± 0.028 mv. In addition, the J point is reported as −0.011 ± 0.003 mv in assay [3] (low-dose group, dosage 5 mg/kg, gastric once a day for 10 days, before operation); 0.176 ± 0.050 mv in assay [3] (low-dose group, dosage 5 mg/kg, 1 min after operation); 0.204 ± 0.010 mv in assay [3] (low-dose group, dosage 5 mg/kg, 5 min after operation); 0.185 ± 0.096 mv in assay [3] (low-dose group, dosage 5 mg/kg, 15 min after operation); 0.206 ± 0.036 mv in assay [3] (low-dose group, dosage 5 mg/kg, 1 h after operation); 0.194 ± 0.042 mv in assay [3] (low-dose group, dosage 5 mg/kg, 4 h after operation). Moreover, the “free-radical scavenging compared with vitamin C” value in assay [4] (setting [8]) is “much higher free-radical scavenging than that of the vitamin C”. Further, the Free-radical scavenging rate in assay [4] (setting [9]) is recorded as 10.32 ± 0.81%; in assay [4] (sample 1.25 μg/ml) it was 28.77 ± 2.26%; in assay [4] (sample 2.5 μg/ml) it was 44.22 ± 1.95%; in assay [4] (sample 5 μg/ml), 86.01 ± 8.92%; in assay [4] (sample 10 μg/ml) it was 98.97 ± 5.41%. For the same compound, the “Na^+—K^+-ATPase” value in assay [5] (setting [10]) was 0.005 ± 0.006 μmolPi/10^7 RBC/h; in assay [5] (low-dose group, dosage 5 mg/kg), 0.004 ± 0.001 μmolPi/10^7 RBC/h. Moreover, the CK in assay [5] (setting [10]) is on record as 0.88 ± 0.22 U/ml; in assay [5] (low-dose group, dosage 5 mg/kg), 1.18 ± 0.29 U/ml. In addition, the CK-MB in assay [5] (setting [10]) was 846.7 ± 144.2 U/L; in assay [5] (low-dose group, dosage 5 mg/kg), 970.9 ± 225.1 U/L. Further, the LD was found to be 1.65 ± 0.24 mmol/L in assay [5] (setting [10]) and 1.67 ± 0.23 mmol/L in assay [5] (low-dose group, dosage 5 mg/kg). The MDA in assay [5] (setting [10]) came to 6.72 ± 1.54 nmol/mL; in assay [5] (low-dose group, dosage 5 mg/kg), 7.46 ± 1.07 nmol/mL; in assay [7] (setting [11]), 324 ± 33 µg/g. The SOD in assay [5] (setting [10]) is listed as 241.7 ± 19.8 U/ml; in assay [5] (low-dose group, dosage 5 mg/kg), 220.3 ± 32.6 U/ml; in assay [7] (setting [11]), 57.3 ± 4.9 U/g. Further, in assay [6] (setting [8]), the “reducing capacity compared with vitamin C” value was “much stronger than that of vitamin C”. In addition, the “reducing capacity (absorbance at 700 nm minus blank control)” value in assay [6] (sample 3.125 μg/ml) was 0.157 ± 0.027; in assay [6] (sample 6.25 μg/ml) it was 0.215 ± 0.011; in assay [6] (sample 12.5 μg/ml), 0.039 ± 0.012; in assay [6] (sample 25 μg/ml), 0.771 ± 0.023; in assay [6] (sample 50 μg/ml), 1.573 ± 0.036. For the same compound, the “Serum TGF-β1” value in assay [7] (16 mg/kg drenched once each day, day 21) is recorded as 263 ± 35 ng/L. The CAT in assay [7] (setting [11]) is listed as 24.9 ± 2.3 U/g. This compound also had a POD in assay [7] (setting [11]) of 15.3 ± 2.1 U/g. In addition, in assay [7] (setting [11]), the “Tissue TGF-β1” value was found to be 541 ± 51 pg/g.

Turning to `CC(=O)Oc1ccccc1C(=O)O` [Aspirin, reference compound], the myocardial infarction rate entry in assay [2] (aspirin group (30 mg/kg)) is recorded as “significantly reduce the myocardial infarction rate”. In assay [3] (aspirin group, dosage 30 mg/kg, gastric once a day for 10 days, before operation), this compound returned a J point of −0.012 ± 0.005 mv. The compound further gave a J point in assay [3] (aspirin group, dosage 30 mg/kg, 1 min after operation) of 0.172 ± 0.057 mv. Besides, the J point in assay [3] (aspirin group, dosage 30 mg/kg, 5 min after operation) amounted to 0.184 ± 0.024 mv. Moreover, the J point in assay [3] (aspirin group, dosage 30 mg/kg, 15 min after operation) turned out to be 0.166 ± 0.025 mv. In assay [3] (aspirin group, dosage 30 mg/kg, 1 h after operation), this compound returned a J point of 0.169 ± 0.036 mv. Moreover, in assay [3] (aspirin group, dosage 30 mg/kg, 4 h after operation), the J point is 0.172 ± 0.021 mv. Besides, in assay [5] (aspirin group, dosage 30 mg/kg), the “Na^+—K^+-ATPase” value is 0.005 ± 0.001 μmolPi/10^7 RBC/h, the CK was determined as 1.01 ± 0.16 U/ml, the CK-MB amounted to 841.9 ± 20.3 U/L and the LD was 1.75 ± 0.17 mmol/L. In assay [5] (aspirin group, dosage 30 mg/kg), the MDA came to 6.84 ± 0.97 nmol/mL and the SOD was determined as 221.1 ± 24.7 U/ml.

Turning to `O=C1O[C@H]([C@@H](O)CO)C(O)=C1O` [Vitamin C, reference compound], the Free-radical scavenging rate was found to be 8.02 ± 0.47% in assay [4] (setting [9]); 15.56 ± 1.81% in assay [4] (sample 1.25 μg/ml); 21.32 ± 1.89% in assay [4] (sample 2.5 μg/ml); 56.29 ± 5.93% in assay [4] (sample 5 μg/ml); 79.51 ± 7.26% in assay [4] (sample 10 μg/ml).

The record behind these values is patent US10626077B2, “Salvianolic acid compound T, preparation method therefor, and use thereof” (TASLY PHARMACEUTICAL GROUP CO., LTD., priority 2013, dated 2020).
